Data published in US20260226493A1, “HERBICIDE RESISTANT PLANTS” (SYNGENTA CROP PROTECTION AG, priority 2023, published 2026).
Where “and” joins values, the source holds several entries; their conditions need not be identical. Identical values can stand only once.

Assays:
[1] = system: D4604 (Arabidopsis thaliana BIO3-BIO1 W392S) containing tobacco plants; assay: Visual herbicide damage score on transgenic tobacco D4604 (pCMP AtBioDA W392S); format: in vivo; conditions: 600 gai/ha, each table row is one D4604 transgenic plant
Excerpt: (§1) Populations of transgenic tobacco comprising 20-30 transgenic events per plant transformation constructs were generated as described in Example 1. These lines were clonally propagated and 1 clone per event was sprayed with 600 g ai/ha compound L or A+0.2% Genapol X080 with a spray volume of 200 L/Ha (“g ai/ha” refers to grams of active compound per hectare).
(§2) Herbicidal damage was visually assessed across the population and a herbicide damage score given at 7, 14 and 21 days. A score of 0 indicates no visible damage or stunting whereas a score of 100 indicates a complete death of the plant. 20 transgenic events (i.e. individual transgenic plants) from each GM tobacco line were transplanted to soil 1 week prior to spraying with BIO3-BIO1inhibiting compounds. WT tobacco was included as a control.
(§3) To determine if overexpression of variants detailed in Example 7 confer resistance to BIO3-BIO1 inhibiting compounds when expressed in plants, GM tobacco lines were produced using the methods in Example 1 and tested with BIO3-BIO1 inhibiting compounds.
(§4) Transgenic tobacco plants expressing the Arabidopsis thaliana BIO3-BIO1 variants C388D (SEQ ID NO:26), P421L(SEQ ID NO:41), F348C (SEQ ID NO:28), G700S (SEQ ID NO:39), W392S (SEQ ID NO:70) and the Zea mays BIO3-BIO1 variant C372D (SEQ ID NO:324). Populations of transgenic tobacco were sprayed and assessed as in Example 2

[2] = system: D4586 (Zea mays BIO3-BIO1 C372D) containing tobacco plants; assay: Visual herbicide damage score on transgenic tobacco D4586 (pCMP ZmBioDA C372D); format: in vivo; conditions: 600 gai/ha; 7 DAT; each table row is one D4586 transgenic plant
Excerpt: as §1, §2, §3, §4

[3] = biological target: T1, Arabidopsis thaliana BioDA variant enzymes (Arabidopsis thaliana, UniProt B0F481, W391L); assay: biochemical
T1 construct: with the predicted N-terminal mitochondrial transit peptide removed; 6xHis-tag (N); thrombin cleavage site (N); made in house; host or cells: E. coli BL21 (DE3) bioA
T1 sequence (B0F481 24-833 W391L): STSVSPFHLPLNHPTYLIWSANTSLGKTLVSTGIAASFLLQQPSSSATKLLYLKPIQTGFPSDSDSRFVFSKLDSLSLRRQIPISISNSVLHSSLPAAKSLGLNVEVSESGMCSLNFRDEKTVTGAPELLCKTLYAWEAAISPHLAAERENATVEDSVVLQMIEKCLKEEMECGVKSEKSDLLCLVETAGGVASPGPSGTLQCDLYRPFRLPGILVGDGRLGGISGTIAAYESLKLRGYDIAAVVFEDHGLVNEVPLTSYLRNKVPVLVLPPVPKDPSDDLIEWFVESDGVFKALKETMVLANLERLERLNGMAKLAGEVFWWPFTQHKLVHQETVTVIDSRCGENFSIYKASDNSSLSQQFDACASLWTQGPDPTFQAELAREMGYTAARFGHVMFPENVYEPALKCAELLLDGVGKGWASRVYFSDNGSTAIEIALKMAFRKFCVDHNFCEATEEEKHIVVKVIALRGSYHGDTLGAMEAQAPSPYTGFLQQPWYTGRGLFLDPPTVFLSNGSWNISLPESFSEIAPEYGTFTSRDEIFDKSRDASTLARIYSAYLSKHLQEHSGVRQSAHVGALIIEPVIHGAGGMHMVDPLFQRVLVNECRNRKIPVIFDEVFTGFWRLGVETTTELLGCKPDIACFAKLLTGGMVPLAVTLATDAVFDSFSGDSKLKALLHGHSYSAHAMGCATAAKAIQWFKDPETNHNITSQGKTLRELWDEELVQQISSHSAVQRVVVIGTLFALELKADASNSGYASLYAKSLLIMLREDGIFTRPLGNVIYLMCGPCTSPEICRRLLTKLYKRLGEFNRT
Summary of the method: (§5)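 His-tagged BIO3-BIO1 mutants expressed in E. coli and purified by IMAC and SEC. 50 nM enzyme preincubated with herbicide 10 min at 20 °C, then reacted 75 min with 20 μM KAPA and 100 μM spermidine in EPPS pH 8.6. DAPA derivatised with o-phthalaldehyde, fluorescence read at ex 410/em 470 nm; IC50 by non-linear regression.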

[4] = biological target: T2, Arabidopsis thaliana BioDA variant enzymes (Arabidopsis thaliana, UniProt B0F481, P421L); assay: biochemical
T2 construct: with the predicted N-terminal mitochondrial transit peptide removed; 6xHis-tag (N); thrombin cleavage site (N); made in house; host or cells: E. coli BL21 (DE3) bioA
T2 sequence (B0F481 24-833 P421L): as the sequence (B0F481 24-833 W391L) above, with L368W, P398L counted along it
Summary of the method: as §5

[5] = biological target: T3, Arabidopsis thaliana BioDA variant enzymes (Arabidopsis thaliana, UniProt B0F481, F348C); assay: biochemical
T3 construct: with the predicted N-terminal mitochondrial transit peptide removed; 6xHis-tag (N); thrombin cleavage site (N); made in house; host or cells: E. coli BL21 (DE3) bioA
T3 sequence (B0F481 24-833 F348C): as the sequence (B0F481 24-833 W391L) above, with F325C, L368W counted along it
Summary of the method: as §5

[6] = biological target: T4, Arabidopsis thaliana BioDA variant enzymes (Arabidopsis thaliana, UniProt B0F481, W392G); assay: biochemical
T4 construct: with the predicted N-terminal mitochondrial transit peptide removed; 6xHis-tag (N); thrombin cleavage site (N); made in house; host or cells: E. coli BL21 (DE3) bioA
T4 sequence (B0F481 24-833 W392G): as the sequence (B0F481 24-833 W391L) above, with L368W, W369G counted along it
Summary of the method: as §5

[7] = biological target: T5, Arabidopsis thaliana BioDA variant enzymes (Arabidopsis thaliana, UniProt B0F481, C388T); assay: biochemical
T5 construct: with the predicted N-terminal mitochondrial transit peptide removed; 6xHis-tag (N); thrombin cleavage site (N); made in house; host or cells: E. coli BL21 (DE3) bioA
T5 sequence (B0F481 24-833 C388T): as the sequence (B0F481 24-833 W391L) above, with C365T, L368W counted along it
Summary of the method: as §5

[8] = system: Wildtype Samsun tobacco; assay: Visual herbicide damage score on wild-type tobacco plants after spraying; format: in vivo; conditions: for percentage of damage: 600 gai/ha, one WT plant
Excerpt: as §1
as §2, with “A” for “Herbicidal damage was visually assessed across the population and a herbicide damage score given at 7, 14 and 21 days. A”, “control. […]” for “control.”

[9] = system: D4596 (Arabidopsis thaliana BIO3-BIO1 F348C) containing tobacco plants; assay: Visual herbicide damage score on transgenic tobacco D4596 (pCMP AtBioDA F348C); format: in vivo; conditions: 600 gai/ha; 7 DAT; each table row is one D4596 transgenic plant
Excerpt: as §1, §2, §3, §4

| SMILES | percentage of damage ([1]; 14 DAT) | percentage of damage ([1]; 21 DAT) | percentage of damage [2] | IC50 [3] | IC50 [4] | IC50 [5] | IC50 [6] | IC50 [7] | percentage of damage ([8]; 7 DAT) | percentage of damage ([8]; 14 DAT) | percentage of damage ([8]; 21 DAT) | growth of representative wild type tobacco plant after treatment (photograph, FIG. 6) ([8]; compound L 600 gai/ha, 28 days post treatment, compared to Event 8307 (pBin TMV EcBioA) and Event 8402 (pBin TMV MTP EcBioA)) | percentage of damage [9] |
| --- | --- | --- | --- | --- | --- | --- | --- | --- | --- | --- | --- | --- | --- |
| CCn1c(Cn2ccc(C(F)(F)F)n2)cc(=O)c(C(=O)O)c1-c1ccc(Cl)c(Cl)c1 [Compound L, 2-(3,4-dichlorophenyl)-1-ethyl-4-oxo-6-[[3-(trifluoromethyl)pyrazol-1-yl]methyl]pyridine-3-carboxylic acid] | 70% | 80% | 10% | 16.3 µM | 0.687 µM | 77.6 µM | 17.7 µM | 0.092 µM | 55% and 40% and 45% and 50% | 80% (2×) and 85% and 75% | 90% and 75% and 85% | significantly stunted growth |  |
| CCOC(=O)c1nn(-c2ccc3c(c2)OC(F)(F)C(F)(F)O3)c2cccc(C(C)=O)c2c1=O [Compound A, ethyl 5-acetyl-4-oxo-1-(2,2,3,3-tetrafluoro-1,4-benzodioxin-6-yl)cinnoline-3-carboxylate] |  |  |  |  |  |  |  |  |  |  |  |  | 0% and 3% |
